The values that follow are results of earlier work, collected in PMC4043931 (Chembiochem : a European journal of chemical biology, 2014).

Common to all, as to conditions: listed for comparison; ref [7i], [10]
Series [1] has as its system Pseudomonas aeruginosa (ATCC 27853).
Series [2] concerns Klebsiella. pneumoniae (ATCC 13383).
In series [3] the test system is Methicillin-resistant Staphylococcus epidermidis (RP62A).
Series [4] relates to Methicillin-resistant Staphylococcus aureus (ATCC 33591).
Series [5] relates to Vancomycin-resistant Enterococcus faecalis (ATCC 700802).
Series [6] has as its system human red blood cells (hRBC's).

Regarding Pexiganan, in series [1], the “MIC P. aeruginosa” value is 16 µg/mL. Besides, the “MIC K. pneumoniae” value in series [2] was 8 µg/mL. Further, the “MIC S. epidermidis” value in series [3] was 8 µg/mL. For the same substance, the “MIC S. aureus” value in series [4] was 16 µg/mL. Further, the “MIC E. faecalis” value in series [5] is 32 µg/mL. Also, in series [6], the “Hemolysis HC50” value was 120 µg/mL.
